# Source: patent EP4741406A1, “NEUROKININ-1 RECEPTOR ANTAGONIST COMPOUND” (Creadev (Nanjing) Pharmaceutical Technology Co., Ltd., priority 2023, dated 2025)
# Key:
# Thermodynamic solubility = assay type: physicochemical; details: aqueous buffer, thermodynamic from solid; 100 mM phosphate buffer pH 7.4, room temperature, shaking 16 hours
# Procedure: 100 mM phosphate buffer solution: Dissolve 7.94 g of K2HPO4.3H2O and 2.07 g of KH2PO4 in 500 mL ultrapure water. Adjust the solution pH to 7.4 with 1 N NaOH, then filter and set aside.
# Accurately weigh an appropriate amount of the example compound and add it in small portions to 100 mM phosphate buffer solution to prepare a final concentration of 20 mg/mL. After shaking at room temperature for 16 hours, let stand for 30 min, then filter the supernatant and dilute with DMSO. Add the diluted sample solution to quenching solution, mix thoroughly, and analyze by LC/MS.
# [1] = In vivo pharmacokinetic study in rats, intravenous; details: rat, 2 mg/kg
# Procedure: Rats were used as test subjects. […] This study evaluated the pharmacokinetic behavior of the compounds in rats and assessed their pharmacokinetic characteristics.
# Intravenous push injection was performed over approximately 5 minutes, with a dose of 2 mg/kg, a concentration of 0.4 mg/mL, and a volume of 5 mL/kg.
# (§1) Sodium heparin was used as an anticoagulant. Immediately after collection, whole blood proteins were precipitated using methanol:acetonitrile (1:1), and the supernatant was transferred for LC/MS/MS analysis.
# [2] = tested on: red blood cell suspension; test: In vitro human hemolysis assay; assay type: cell-based; details: concentrations as high as 200 µM, 37 °C, 45 minutes
# Procedure: Collect the whole blood and store it in a 250 mL Erlenmeyer flask. Shake at 500 rpm for 10 minutes to remove fibrinogen, producing defibrinated blood. Wash with physiological saline (blood volume: saline volume = 1:4). Centrifuge the blood/saline mixture at 2500 rpm for 15 minutes at 4°C, discard the supernatant. Wash the sedimented red blood cells several times with physiological saline (blood volume: saline volume = 1:4) and centrifuge at 2500 rpm for 15 minutes until the supernatant is no longer red. Prepare a red blood cell suspension using physiological saline at a ratio of 1:49 (cell volume: saline volume) and store at 4°C until use.
# Observe for aggregation every 15 minutes. • 3) Centrifuge the resulting solution at 4000 rpm for 15 minutes at 4°C. Transfer 100 µL of the supernatant and measure absorbance at 540 nm to calculate the hemolysis rate (%).
# [3] = Plasma stability assay (conversion to parent drug); assay type: in vitro ADME; details: human plasma, 37 °C, 1 µM
# Procedure: Human plasma (Vendor: AoNeng Biotech).
# A certain amount of the compound of the examples was weighed and dissolved in DMSO to prepare a 10 mM stock solution. An aliquot of the 10 mM stock solution was diluted with DMSO to obtain a 1600 µM intermediate solution. An aliquot of the 1600 µM intermediate solution was further diluted with 45% methanol to prepare a 16 µM working solution.
# • 1) Plasma was pre-incubated in a water bath at 37 °C for 5 min. • 2) 4 µL of the 16 µM working solution of the compound of the examples was added to 60 µL of plasma to give a final compound concentration of 1 µM, and the mixture was gently mixed. • 3) Samples were incubated at each time point (0, 15, 30, 60, and 120 min). After incubation, 192 µL of acetonitrile containing an internal standard was added, followed by shaking on a shaker for 1 min. The mixture was centrifuged at 3700 rpm at 4 °C for 20 min, and the supernatant was collected for LC-MS analysis.
# [4] = Pharmacokinetic study in crab-eating monkeys, intravenous infusion; details: monkey, 2 mg/kg
# Procedure: Crab-eating monkeys were used as test subjects.
# Intravenous infusion was performed over 30 minutes, with a dose of 2 mg/kg, a concentration of 0.4 mg/mL, and a volume of 5 mL/kg.
# as §1
# [5] = Liver S9 stability assay (conversion to parent drug); assay type: in vitro ADME; details: human liver S9 with NADPH, 37 °C
# Procedure: Human pooled liver S9 (Vendor: Xenotech), thawed in a 37°C water bath before use.
# Weigh a certain amount of the example compound, dissolve in DMSO to prepare a 10 mM stock solution, then dilute an appropriate volume of the stock solution with DMSO to obtain a 200 µM working solution.
# Take 1.5 µL of the 200 µM working solution of the example compound and add it to 238.5 µL of liver S9 working solution, pre-incubate in a 37°C water bath for 5 min; then add 60 µL of NADPH working solution to initiate the reaction and mix by gentle inversion. At the 0 min time point, transfer the above mixture into quenching solution and mix; at the 5, 15, 30, and 60 min time points, transfer the mixture into quenching solution and DMSO and mix. […] Collect the supernatant for LC-MS analysis.
# [6] = time point 0 min, parent drug = Lorapiprant
SMILES,solubility at 16 h (Thermodynamic solubility) [mg/mL],AUC(0-t) ([1]; whole blood) [ng·h/mL],Cmax ([1]; whole blood) [ng/mL],MRT inf ([1]; whole blood) [min],Tmax ([1]; whole blood) [min],half-life ([1]; whole blood) [min],"Parent drug% [5, 6] [%]",Parent drug% ([5]; time point 5 min) [%],Parent drug% ([5]; time point 15 min) [%],Parent drug% ([5]; time point 30 min) [%],Parent drug% ([5]; time point 60 min) [%],other results
C[C@@H](OC[C@@]1(c2ccccc2)CC[C@]2(CCC(=O)N2)CN1C(=O)OCSSCCOCCOCCOCCC(=O)O)c1cc(C(F)(F)F)cc(C(F)(F)F)c1 [Example 47],10.9,,,,,,,,,,,
C[C@@H](OC[C@@]1(c2ccccc2)CC[C@]2(CCC(=O)N2)CN1C(=O)OCSSCCCOS(=O)(=O)O)c1cc(C(F)(F)F)cc(C(F)(F)F)c1 [Example 39],6.54,19.9,116,7.56,5,8.34,,,,,,hemolytic activity [2]: no hemolytic activity
C[C@@H](OC[C@@]1(c2ccccc2)CC[C@]2(CCC(=O)N2)CN1C(=O)OCSSCCS(=O)(=O)O)c1cc(C(F)(F)F)cc(C(F)(F)F)c1 [Example 42],13.2,,,,,,34.8,40.6,48.5,51.9,44.0,"AUC(0-t) ([1]; in vivo): 9.42 ng·h/mL; Cmax ([1]; in vivo): 61.2 ng/mL; MRT inf ([1]; in vivo): 5.45 min; Tmax ([1]; in vivo): 5 min; half-life ([1]; in vivo): 4.66 min; Parent drug% [3, 6]: 6.09%; Parent drug% ([3]; time point 15 min): 52.71%; Parent drug% ([3]; time point 30 min): 60.94%; Parent drug% ([3]; time point 60 min): 53.88%; Parent drug% ([3]; time point 120 min): 66.59%; AUC(0-t) ([4]; in vivo): 528 ng·h/mL; Cmax ([4]; in vivo): 1620 ng/mL; Tmax ([4]; in vivo): 30 min; half-life ([4]; in vivo): 6.06 min"
C[C@@H](OC[C@@]1(c2ccccc2)CC[C@]2(CCC(=O)N2)CN1C(=O)OCSSCCC(=O)O)c1cc(C(F)(F)F)cc(C(F)(F)F)c1 [Example 33],,,,,,,13.2,22.5,41.9,50.0,57.3,
"C[C@@H](OC[C@@]1(c2ccccc2)CC[C@]2(CCC(=O)N2)CN1C(=O)OCOP(=O)(O)O)c1cc(C(F)(F)F)cc(C(F)(F)F)c1 [Compound of formula (I), reference compound]",,82.6,328,21,5,26.3,,,,,,AUC(0-t) ([4]; whole blood): 688 ng·h/mL; Cmax ([4]; whole blood): 2110 ng/mL; Tmax ([4]; whole blood): 30 min; half-life ([4]; whole blood): 9.06 min
